pIC50: −log10 of the molar value. Counter-ions that a name gives are not always drawn. Like-named read-outs stand apart in the source and are kept apart here.
Molecular target: T1, Serine Palmitoyl Transferase (SPT); microsomes from HEK 293 cells stably transfected with human LCB2 subunit of SPT (Homo sapiens, UniProt O15270)
T1 construct: expressed in transfected cells; host or cells: HEK 293 cells stably transfected with LCB2; microsomal fraction
T1 sequence (O15270 1-562): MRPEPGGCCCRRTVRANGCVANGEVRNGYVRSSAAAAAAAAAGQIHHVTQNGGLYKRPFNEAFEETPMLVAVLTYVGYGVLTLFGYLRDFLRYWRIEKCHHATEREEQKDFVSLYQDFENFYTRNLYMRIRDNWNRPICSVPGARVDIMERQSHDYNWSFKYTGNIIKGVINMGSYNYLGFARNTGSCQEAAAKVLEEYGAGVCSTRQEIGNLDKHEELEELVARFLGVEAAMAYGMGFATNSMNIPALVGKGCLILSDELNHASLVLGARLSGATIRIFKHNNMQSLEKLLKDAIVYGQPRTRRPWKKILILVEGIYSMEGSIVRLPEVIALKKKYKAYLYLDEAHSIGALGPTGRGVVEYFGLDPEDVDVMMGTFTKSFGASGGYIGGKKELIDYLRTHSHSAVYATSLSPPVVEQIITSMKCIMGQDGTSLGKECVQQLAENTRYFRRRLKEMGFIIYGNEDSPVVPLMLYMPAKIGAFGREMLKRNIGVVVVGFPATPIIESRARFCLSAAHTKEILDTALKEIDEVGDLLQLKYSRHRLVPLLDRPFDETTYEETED
T1 sequence (O15269 1-473 partner): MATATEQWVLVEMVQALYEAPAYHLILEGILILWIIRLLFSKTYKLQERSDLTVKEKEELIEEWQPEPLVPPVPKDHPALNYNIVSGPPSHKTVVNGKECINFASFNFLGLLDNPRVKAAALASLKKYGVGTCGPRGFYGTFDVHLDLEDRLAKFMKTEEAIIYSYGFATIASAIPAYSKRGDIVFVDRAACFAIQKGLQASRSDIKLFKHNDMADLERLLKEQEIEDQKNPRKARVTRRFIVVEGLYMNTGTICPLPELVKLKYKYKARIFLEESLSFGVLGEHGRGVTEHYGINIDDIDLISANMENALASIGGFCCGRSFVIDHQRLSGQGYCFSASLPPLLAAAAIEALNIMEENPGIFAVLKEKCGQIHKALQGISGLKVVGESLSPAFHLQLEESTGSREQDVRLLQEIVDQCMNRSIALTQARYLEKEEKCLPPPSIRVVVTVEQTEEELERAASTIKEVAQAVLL
T1 sequence (Q969W0 1-71 partner): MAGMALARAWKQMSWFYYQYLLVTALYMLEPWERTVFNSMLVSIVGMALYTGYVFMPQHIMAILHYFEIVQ
Assay: SPT flashplate assay
Type: biochemical
Details: for pIC50: microsomes of HEK 293 LCB2 cells, 3H-serine and palmitoyl CoA, phospholipid coated flashplate, 18-24 hours at room temperature, read-out: SPTISF IC50; for IC50: SPTISF IC50 (nM)

Question: With COC1(C)CCC(C(=O)CN2CCC(n3c(=O)[nH]c4cc(S(C)(=O)=O)ccc43)CC2)CC1 (stereo not drawn) [Example 47, 1-{1-[2-(4-methoxy-4-methylcyclohexyl)-2-oxoethyl]piperidin-4-yl}-5-(methylsulfonyl)-1,3-dihydro-2H-benzimidazol-2-one] as the compound, how does the pIC50 read?
Answer: 6.29

Question: CNC(=O)c1cc2c(cc1F)N(C1CCN(CC(=O)N3CCC(C)(C)CC3)CC1)C(=O)C2 [Example 22, 1-[2-(4,4-dimethylpiperidin-1-yl)-2-oxoethyl]-4-{6-fluoro-5-[(methylamino)carbonyl]-2-oxo-2,3-dihydro-1H-indol-1-yl}piperidinium chloride] was tested. Which IC50 did it give?
Answer: 10.6 nM

Question: CNC(=O)c1cc2[nH]c(=O)n(C3CCN(CC(=O)C4CCC(C)CC4)CC3)c2cc1F (stereo not drawn) [Example 13, 6-fluoro-N-methyl-1-{1-[2-(4-methylcyclohexyl)-2-oxoethyl]piperidin-4-yl}-2-oxo-2,3-dihydro-1H-benzimidazole-5-carboxamide] was tested. Which pIC50 did it give?
Answer: 8.22

Question: With CCNC(=O)c1ccc2c(c1)n(C)c(=O)n2C1CCN(CC(=O)N2CCC(C)(C)CC2)CC1 [Example 33, 1-[2-(4,4-dimethylpiperidin-1-yl)-2-oxoethyl]-4-{5-[(ethylamino)carbonyl]-3-methyl-2-oxo-2,3-dihydro-1H-benzimidazol-1-yl}piperidinium chloride] as the compound, how does the pIC50 read?
Answer: 7.23

Question: With CNC(=O)c1cc2[nH]c(=O)n(C3CCN(CC(=O)N4CCC5(CC4)CC5)CC3)c2cc1F [Example 28, 1-{1-[2-(6-azaspiro[2.5]oct-6-yl)-2-oxoethyl]piperidin-4-yl}-6-fluoro-N-methyl-2-oxo-2,3-dihydro-1H-benzimidazole-5-carboxamide] as the compound, how does the pIC50 read?
Answer: 7.89

Question: With CNC(=O)c1cc2[nH]c(=O)n(C3CCN(CC(=O)C4CCCCC4)CC3)c2cc1F [Example 11, 1-[1-(2-cyclohexyl-2-oxoethyl)piperidin-4-yl]-6-fluoro-N-methyl-2-oxo-2,3-dihydro-1H-benzimidazole-5-carboxamide] as the compound, how does the pIC50 read?
Answer: 7.20

Question: COC1(C)CCN(C(=O)CN2CCC(n3c(=O)[nH]c4cc(C(C)=O)ccc43)CC2)CC1 [Example 55, 5-acetyl-1-{1-[2-(4-methoxy-4-methylpiperidin-1-yl)-2-oxoethyl]piperidin-4-yl}-1,3-dihydro-2H-benzimidazol-2-one; HCl salt] was tested. Which pIC50 did it give?
Answer: 7.15

Question: For O=C(CN1CCC(n2c(=O)[nH]c3cc(-c4noc(=O)[nH]4)ccc32)CC1)c1ccc(Cl)cc1 [Example 37, 1-{1-[2-(4-chlorophenyl)-2-oxoethyl]piperidin-4-yl}-5-(5-oxo-4,5-dihydro-1,2,4-oxadiazol-3-yl)-1,3-dihydro-2H-benzimidazol-2-one], which IC50 is on record?
Answer: 1.68 nM

Question: How did the pIC50 turn out when CS(=O)(=O)c1ccc2c(c1)[nH]c(=O)n2C1CCN(CC(=O)C2CCC(C(F)(F)F)CC2)CC1 (stereo not drawn) [Example 44, 1-{1-[2-(4-trifluoromethylcyclohexyl)-2-oxoethyl]piperidin-4-yl}-5-(methylsulfonyl)-1,3-dihydro-2H-benzimidazol-2-one] was run?
Answer: 7.29
